Measured values taken from PubChem BioAssay (NCI).
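All cell lines were grown in 96-well plates and treated with compound for 48 hours. The concentration for 50% growth inhibition is given as GI50. TGI denotes the concentration required for complete inhibition of growth.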

Legend:
Assay in all cases: NCI anticancer screen, dose series, 48 h
SK-OV-3 ovarian = tested on: SK-OV-3 ovarian
UO-31 renal = tested on: UO-31 renal
UACC-62 melanoma = tested on: UACC-62 melanoma
PC-3 prostate = tested on: PC-3 prostate
HS 578T breast = tested on: HS 578T breast
LOX IMVI melanoma = tested on: LOX IMVI melanoma
SW-620 colon = tested on: SW-620 colon
RXF 393 renal = tested on: RXF 393 renal
NCI/ADR-RES ovarian = tested on: NCI/ADR-RES ovarian
A549 NSCLC = tested on: A549 NSCLC
TK-10 renal = tested on: TK-10 renal
K-562 leukemia = tested on: K-562 leukemia
MDA-MB-231 breast = tested on: MDA-MB-231 breast
SK-MEL-5 melanoma = tested on: SK-MEL-5 melanoma
MCF7 breast = tested on: MCF7 breast
SR leukemia = tested on: SR leukemia
BT-549 breast = tested on: BT-549 breast
M14 melanoma = tested on: M14 melanoma
RPMI-8226 leukemia = tested on: RPMI-8226 leukemia
HT29 colon = tested on: HT29 colon
HCC-2998 colon = tested on: HCC-2998 colon
NCI-H23 lung = tested on: NCI-H23 lung
DU-145 prostate = tested on: DU-145 prostate
CAKI-1 renal = tested on: CAKI-1 renal
EKVX NSCLC = tested on: EKVX NSCLC
COLO 205 colon = tested on: COLO 205 colon
NCI-H460 lung = tested on: NCI-H460 lung
OVCAR-5 ovarian = tested on: OVCAR-5 ovarian
ACHN renal = tested on: ACHN renal
CCRF-CEM leukemia = tested on: CCRF-CEM leukemia
KM12 colon = tested on: KM12 colon
HOP-92 NSCLC = tested on: HOP-92 NSCLC
OVCAR-4 ovarian = tested on: OVCAR-4 ovarian
U251 CNS = tested on: U251 CNS
HCT-15 colon = tested on: HCT-15 colon
NCI-H226 lung = tested on: NCI-H226 lung
HL-60(TB) leukemia = tested on: HL-60(TB) leukemia
SF-295 CNS = tested on: SF-295 CNS
786-0 renal = tested on: 786-0 renal
HOP-62 NSCLC = tested on: HOP-62 NSCLC
T-47D breast = tested on: T-47D breast
SN12C renal = tested on: SN12C renal
A498 renal = tested on: A498 renal
SNB-19 CNS = tested on: SNB-19 CNS
SK-MEL-28 melanoma = tested on: SK-MEL-28 melanoma
SF-539 CNS = tested on: SF-539 CNS
UACC-257 melanoma = tested on: UACC-257 melanoma
MALME-3M melanoma = tested on: MALME-3M melanoma
IGROV1 ovarian = tested on: IGROV1 ovarian
MDA-MB-435 = tested on: MDA-MB-435
HCT-116 colon = tested on: HCT-116 colon
MOLT-4 leukemia = tested on: MOLT-4 leukemia
OVCAR-8 ovarian = tested on: OVCAR-8 ovarian
SNB-75 CNS = tested on: SNB-75 CNS
SF-268 CNS = tested on: SF-268 CNS
OVCAR-3 ovarian = tested on: OVCAR-3 ovarian
SK-MEL-2 melanoma = tested on: SK-MEL-2 melanoma
NCI-H522 lung = tested on: NCI-H522 lung
MDA-N = tested on: MDA-N

With `NC(CS/C(Cl)=C/Cl)C(=O)O` (configuration not stated) the GI50 (SK-OV-3 ovarian) was over 100 µM, the TGI (SK-OV-3 ovarian) was over 100 µM and the GI50 (UO-31 renal) was 54.8 µM. It also gave a TGI (UO-31 renal) of over 100 µM, a GI50 (UACC-62 melanoma) of 57 µM and a TGI (UACC-62 melanoma) of over 100 µM. For the same compound, the GI50 (PC-3 prostate) was 34.3 µM, the TGI (PC-3 prostate) was over 100 µM and the GI50 (HS 578T breast) was 55.1 µM. The TGI (HS 578T breast) was over 100 µM, the GI50 (LOX IMVI melanoma) was 1020 nM and the TGI (LOX IMVI melanoma) was 4.34 µM. The GI50 (SW-620 colon) was 39.8 µM, the TGI (SW-620 colon) was over 100 µM and the GI50 (RXF 393 renal) was over 44.6 µM. For the same compound, the TGI (RXF 393 renal) was over 87.2 µM, the GI50 (NCI/ADR-RES ovarian) was 31.8 µM and the TGI (NCI/ADR-RES ovarian) was over 100 µM. For the same compound, the GI50 (A549 NSCLC) was 1690 nM, the TGI (A549 NSCLC) was 6.98 µM and the GI50 (TK-10 renal) was over 100 µM. It also gave a TGI (TK-10 renal) of over 100 µM, a GI50 (K-562 leukemia) of 33.4 µM and a TGI (K-562 leukemia) of over 100 µM. It also gave a GI50 (MDA-MB-231 breast) of over 100 µM, a TGI (MDA-MB-231 breast) of over 100 µM and a GI50 (SK-MEL-5 melanoma) of 3.11 µM. It also gave a TGI (SK-MEL-5 melanoma) of 12.9 µM, a GI50 (MCF7 breast) of 4.03 µM and a TGI (MCF7 breast) of over 100 µM. It also gave a GI50 (SR leukemia) of 34.9 µM, a TGI (SR leukemia) of over 100 µM and a GI50 (BT-549 breast) of 12.1 µM. The TGI (BT-549 breast) was over 64.1 µM, the GI50 (M14 melanoma) was 8.19 µM and the TGI (M14 melanoma) was over 68.3 µM. It also gave a GI50 (RPMI-8226 leukemia) of 12.5 µM, a TGI (RPMI-8226 leukemia) of 74.5 µM and a GI50 (HT29 colon) of 54.7 µM. The TGI (HT29 colon) was over 100 µM, the GI50 (HCC-2998 colon) was 68.8 µM and the TGI (HCC-2998 colon) was over 100 µM. The GI50 (NCI-H23 lung) was 56.5 µM, the TGI (NCI-H23 lung) was over 100 µM and the GI50 (DU-145 prostate) was 16.5 µM. The TGI (DU-145 prostate) was over 100 µM, the GI50 (CAKI-1 renal) was 72.5 µM and the TGI (CAKI-1 renal) was over 100 µM. The GI50 (EKVX NSCLC) was 31.7 µM, the TGI (EKVX NSCLC) was over 100 µM and the GI50 (COLO 205 colon) was 26.6 µM. For the same compound, the TGI (COLO 205 colon) was over 69.7 µM, the GI50 (NCI-H460 lung) was 427 nM and the TGI (NCI-H460 lung) was 2000 nM. The GI50 (OVCAR-5 ovarian) was over 100 µM, the TGI (OVCAR-5 ovarian) was over 100 µM and the GI50 (ACHN renal) was 78.9 µM. The TGI (ACHN renal) was over 100 µM, the GI50 (CCRF-CEM leukemia) was 20.3 µM and the TGI (CCRF-CEM leukemia) was over 100 µM. The GI50 (KM12 colon) was 67.3 µM, the TGI (KM12 colon) was over 100 µM and the GI50 (HOP-92 NSCLC) was 33.2 µM. It also gave a TGI (HOP-92 NSCLC) of over 100 µM, a GI50 (OVCAR-4 ovarian) of 38.3 µM and a TGI (OVCAR-4 ovarian) of over 100 µM. For the same compound, the GI50 (U251 CNS) was over 61 µM, the TGI (U251 CNS) was over 100 µM and the GI50 (HCT-15 colon) was 28.7 µM. The TGI (HCT-15 colon) was over 100 µM, the GI50 (NCI-H226 lung) was over 100 µM and the TGI (NCI-H226 lung) was over 100 µM. The GI50 (HL-60(TB) leukemia) was 51.7 µM, the TGI (HL-60(TB) leukemia) was over 100 µM and the GI50 (SF-295 CNS) was 3.17 µM. It also gave a TGI (SF-295 CNS) of 12.3 µM, a GI50 (786-0 renal) of over 100 µM and a TGI (786-0 renal) of over 100 µM. For the same compound, the GI50 (HOP-62 NSCLC) was 4.64 µM, the TGI (HOP-62 NSCLC) was 29.3 µM and the GI50 (T-47D breast) was 2680 nM. For the same compound, the TGI (T-47D breast) was 15.2 µM, the GI50 (SN12C renal) was 43.3 µM and the TGI (SN12C renal) was over 100 µM. The GI50 (A498 renal) was 8.7 µM, the TGI (A498 renal) was 33.8 µM and the GI50 (SNB-19 CNS) was 30.7 µM. The TGI (SNB-19 CNS) was over 100 µM, the GI50 (SK-MEL-28 melanoma) was 43.6 µM and the TGI (SK-MEL-28 melanoma) was over 100 µM. It also gave a GI50 (SF-539 CNS) of over 100 µM, a TGI (SF-539 CNS) of over 100 µM and a GI50 (UACC-257 melanoma) of 23.3 µM. The TGI (UACC-257 melanoma) was 78.8 µM, the GI50 (MALME-3M melanoma) was 62.4 µM and the TGI (MALME-3M melanoma) was over 100 µM. The GI50 (IGROV1 ovarian) was over 100 µM, the TGI (IGROV1 ovarian) was over 100 µM and the GI50 (MDA-MB-435) was 9.25 µM. It also gave a TGI (MDA-MB-435) of 31.5 µM, a GI50 (HCT-116 colon) of 34.6 µM and a TGI (HCT-116 colon) of over 100 µM. The GI50 (MOLT-4 leukemia) was 41.9 µM, the TGI (MOLT-4 leukemia) was over 100 µM and the GI50 (OVCAR-8 ovarian) was 24.1 µM. For the same compound, the TGI (OVCAR-8 ovarian) was over 100 µM, the GI50 (SNB-75 CNS) was over 75.9 µM and the TGI (SNB-75 CNS) was over 100 µM. For the same compound, the GI50 (SF-268 CNS) was over 76.5 µM, the TGI (SF-268 CNS) was over 100 µM and the GI50 (OVCAR-3 ovarian) was 49.2 µM. The TGI (OVCAR-3 ovarian) was over 100 µM, the GI50 (SK-MEL-2 melanoma) was 22.2 µM and the TGI (SK-MEL-2 melanoma) was over 100 µM. For the same compound, the GI50 (NCI-H522 lung) was over 55.6 µM and the TGI (NCI-H522 lung) was over 100 µM.

`CCOC(=O)c1c[nH]c2oc(/C=N/N3CC(CN4CCOCC4)OC3=O)cc2c1=O` (configuration not stated) showed a TGI (SK-OV-3 ovarian) of over 100 µM, a TGI (UO-31 renal) of over 100 µM and a TGI (UACC-62 melanoma) of over 100 µM. It also gave a TGI (PC-3 prostate) of over 100 µM, a TGI (HS 578T breast) of over 100 µM and a TGI (LOX IMVI melanoma) of over 100 µM. The TGI (SW-620 colon) was over 100 µM, the TGI (RXF 393 renal) was over 100 µM and the TGI (NCI/ADR-RES ovarian) was over 100 µM. The TGI (A549 NSCLC) was over 100 µM, the TGI (TK-10 renal) was over 100 µM and the TGI (K-562 leukemia) was over 100 µM. For the same compound, the TGI (MDA-MB-231 breast) was over 100 µM, the TGI (SK-MEL-5 melanoma) was over 100 µM and the TGI (MCF7 breast) was over 100 µM. For the same compound, the TGI (SR leukemia) was over 100 µM, the TGI (M14 melanoma) was over 100 µM and the TGI (RPMI-8226 leukemia) was over 100 µM. For the same compound, the TGI (HT29 colon) was over 100 µM, the TGI (HCC-2998 colon) was over 100 µM and the TGI (NCI-H23 lung) was over 100 µM. It also gave a TGI (DU-145 prostate) of over 100 µM, a TGI (CAKI-1 renal) of over 100 µM and a TGI (EKVX NSCLC) of over 100 µM. The TGI (COLO 205 colon) was over 100 µM, the TGI (NCI-H460 lung) was over 100000 nM and the TGI (OVCAR-5 ovarian) was over 100 µM. The TGI (ACHN renal) was over 100 µM, the TGI (CCRF-CEM leukemia) was over 100 µM and the TGI (KM12 colon) was over 100 µM. For the same compound, the TGI (HOP-92 NSCLC) was over 100 µM, the TGI (OVCAR-4 ovarian) was over 100 µM and the TGI (U251 CNS) was over 100 µM. It also gave a TGI (HCT-15 colon) of over 100 µM, a TGI (NCI-H226 lung) of over 100 µM and a TGI (HL-60(TB) leukemia) of over 100 µM. It also gave a TGI (SF-295 CNS) of over 100 µM, a TGI (786-0 renal) of over 100 µM and a TGI (HOP-62 NSCLC) of over 100 µM. For the same compound, the TGI (T-47D breast) was over 100 µM, the TGI (SN12C renal) was over 100 µM and the TGI (SNB-19 CNS) was over 100 µM. The TGI (SK-MEL-28 melanoma) was over 100 µM, the TGI (SF-539 CNS) was over 100 µM and the TGI (UACC-257 melanoma) was over 100 µM. The TGI (MALME-3M melanoma) was over 100 µM, the TGI (IGROV1 ovarian) was over 100 µM and the TGI (MDA-MB-435) was over 100 µM. The TGI (HCT-116 colon) was over 100 µM, the TGI (MOLT-4 leukemia) was over 100 µM and the TGI (OVCAR-8 ovarian) was over 100 µM. It also gave a TGI (SNB-75 CNS) of over 100 µM, a TGI (SF-268 CNS) of over 100 µM and a TGI (OVCAR-3 ovarian) of over 100 µM. The TGI (SK-MEL-2 melanoma) was over 100 µM and the TGI (MDA-N) was over 100 µM.
